The source of these data is ChEMBL document CHEMBL5604062, “ASAP - ZIKV NS2B-NS3 protease fluorescence dose response” (2024).

“And” between values parts separate entries of the source, which are not always exact repeats. Equal entries are not always repeated.

For this experiment, the target named is Nonstructural protein 3 (Zika virus, UniProt A0A024AXB9). The experiment is described as follows: Functional biochemical assay to identify treatments for viral infectious disease that targets Zika NS2B-NS3 protease. Utilizing a direct enzyme activity measurement method, reading the fluorescence intensity is used to characterize the relative potency of inhibitors as IC50. Also noted: species or system PRVABC59.
Nonstructural protein 3, sequence (A0A024AXB9 whole entry): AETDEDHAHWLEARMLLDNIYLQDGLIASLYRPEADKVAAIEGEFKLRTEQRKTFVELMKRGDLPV
The IC50 is the point on the concentration scale where inhibition reaches its midpoint. Low readings indicate greater potency, high ones weaker potency. In the case of `Brc1csc(CNCCc2nnc[nH]2)c1`, the IC50 was over 99.5 µM.

`FC(F)(F)c1nc(CNCc2cocn2)cs1` displayed an IC50 of over 99.5 µM.

With `COc1ccc2c(O)nn(S(=O)(=O)c3ccc(C(=O)O)cc3)c2c1`, the IC50 was over 99.5 µM.

On to `COc1nc(Cl)c(CSc2nc(C)co2)s1`, for which the IC50 was over 99.5 µM.

On to `NC(=O)c1ccc(Cn2nnc(C=Cc3ccccc3)n2)cc1`, for which the half-maximal inhibitory concentration (IC50) is over 99.5 µM.

The molecule `Cc1nnnn1Cc1ncc(Br)s1` came in with an IC50 of over 99.5 µM.

Molecule `O=C(O)c1c(Br)sc2nnsc12` came in with an IC50 of 40.2 µM.

Molecule `O=S(=O)(CCOc1ccccc1)c1nccs1` came in with an IC50 of over 99.5 µM.

Regarding `O=c1[nH]c(CSc2ccccc2Cl)nc2ccsc12`, the IC50 is over 99.5 µM.

Turning to `NCc1cccc(NC(=O)c2cc(Cl)cc3c2cnn3CC2CC2)c1`, the IC50 was determined as 3.05 µM.

As to `COCc1nn(CC#Cc2ccc(Cl)cc2)c(=O)o1`, the IC50 was over 99.5 µM.

Take `NCc1cccc(NC(=O)c2cc(Cl)cc(Cl)c2)c1`: half-maximal inhibition (IC50) was put at 5.55 µM.

`C[C@H]1CCC[C@H](C(=O)Nc2cccc(CN)c2)O1` came in with an IC50 of over 99.5 µM.

Take `NCc1cccc(NC(=O)[C@H]2C[C@@H](C(F)(F)F)C[C@@H](C(F)(F)F)C2)c1`: the IC50 was over 99.5 µM.

As for `O=S(=O)(c1cccs1)N1CCN(CC=Cc2ccccc2)CC1`, the IC50 was over 99.5 µM.

`Cc1ccc(S(=O)(=O)N2Cc3ccccc3C[C@@H](C(=O)Nc3cccc(CN)c3)C2)cc1` yielded an IC50 of 43.6 µM.

`NCCc1ccc(NC(=O)c2cc(Cl)cc(CN)c2)cc1` came in with an IC50 of 8.04 µM.

In turn, `COCC=Cc1cccc([C@@H](NC(=O)OCc2ccccc2)C(=O)Nc2cccc(CN)c2)c1` yielded an IC50 of 26.8 µM.

Regarding `O=C(Nc1cc(Cl)cc(C(=O)Nc2cccc(-c3cc[nH]n3)c2)c1)OCc1ccccc1`, the IC50 was over 99.5 µM.

As for `OCCCCCc1nc(-c2ccc(Br)o2)no1`, the IC50 is over 99.5 µM.

For `NCCc1cc(Cl)cc(C(=O)Nc2cccc(CN)c2)c1`, the IC50 stood at 0.33 µM. In other words, the sub-micromolar range.

For `Cn1cc([C@@H]2C[C@H](C(=O)Nc3cccc(CN)c3)CC(=O)N2)cn1`, the IC50 is over 99.5 µM.

On to `NCc1cccc(NC(=O)[C@@H](NC(=O)OCc2ccccc2)c2cccc(-c3ccc(CN)cc3F)c2)c1`, for which the IC50 came out at 32.3 µM.

In turn, `O=C(NCCc1nc2ccccc2[nH]1)c1cc2ccc(F)cc2s1` yielded an IC50 of over 99.5 µM.

`Cc1cc(C(=O)Nc2cccc(CN)c2)nc(C)n1`: the IC50 was over 99.5 µM.

Consider `Cc1cc(C(=O)Nc2cccc(CN)c2)c2c(C)nn(CC(=O)NC(C)C)c2n1`, for which the half-inhibitory concentration (IC50) is over 99.5 µM.

In turn, `N[C@@H](CCO)c1cccc(NC(=O)c2cc(Cl)cc(NC(=O)OCc3ccccc3)c2)c1` showed an IC50 of 39.7 µM.

Regarding `CN(C)[C@@H]1CCC[C@@H](C(=O)Nc2cccc(CN)c2)C1`, the IC50 is over 99.5 µM.

`C[C@@H](N)c1cccc(NC(=O)[C@H]2[C@H]3CCCCC[C@H]3[C@H]2NC(=O)OCc2ccccc2)c1`: the IC50 is 13.1 µM and 12.9 µM.

On to `Cc1cc(C(=O)Nc2cccc(CN)c2)cc(O)n1`, for which the half-maximal inhibitory concentration (IC50) is over 99.5 µM.

Regarding `Cc1ccc(S(=O)(=O)CCCn2ccc3sccc3c2=O)cc1`, the IC50 is over 99.5 µM.

Consider `COc1ccc(-c2cccc([C@@H](NC(=O)OCc3ccccc3)C(=O)Nc3cccc(CN)c3)c2)cn1`, for which the IC50 stood at 35.3 µM.

Take `c1coc(CSCc2nc(-c3nc[nH]n3)no2)c1`: the IC50 is over 99.5 µM.

Molecule `NCc1cccc(NC(=O)[C@@H]2[C@H](N)[C@@H]3CCCCC[C@@H]32)c1` registered an IC50 of over 99.5 µM.

Consider `Cn1cc(NC(=O)c2cc(Cl)cc(NC(=O)OCc3ccccc3)c2)cn1`, for which the IC50 was over 99.5 µM.

Regarding `NCc1cccc(CNC(=O)[C@H]2[C@H]3CCCCC[C@H]3[C@H]2NC(=O)OCc2ccccc2)c1`, the IC50 was 12.3 µM and 59.6 µM and 27 µM.

`NCc1cccc(NC(=O)[C@@H]2CCC[C@]3(CCNC3=O)C2)c1` displayed an IC50 of over 99.5 µM.

Molecule `Brc1ccsc1CSc1cnn[nH]1` showed an IC50 of over 99.5 µM.

The molecule `COC(=O)c1cc(NC(=O)OCc2ccccc2)cc(C(=O)Nc2cccc(CN)c2)c1` showed an IC50 of 55.7 µM.

As to `NCc1cccc(NC(=O)c2c(F)c(Cl)cc(NC(=O)OCc3ccccc3)c2F)c1`, the IC50 amounted to 55.6 µM.

`Clc1snnc1CN1CCC(c2nc3ccccc3o2)CC1` came in with an IC50 of over 99.5 µM.

As to `O=C(Nc1cc(Cl)cc(C(=O)Nc2nccc([C@H]3CCCCN3)n2)c1)OCc1ccccc1`, the IC50 was over 99.5 µM.

The molecule `CC(C)[C@@H]1CC[C@@H](C)C[C@H]1C(=O)Nc1cccc(CN)c1` showed an IC50 of over 99.5 µM.

On to `NCc1cccc(NC(=O)c2cccc(CN)c2)c1`, for which inhibition was half-maximal at 1.87 µM (IC50).

Regarding `O=C(Nc1ccc(Cl)cc1C(=O)Nc1cccc(C2CCNCC2)c1)OCc1ccccc1`, the IC50 was over 99.5 µM.

Molecule `NCc1cccc(NC(=O)c2cc(Cl)cc(C(N)=O)c2)c1` showed an IC50 of 1.35 µM.

Turning to `NCc1cccc(NC(=O)[C@@]23CCC[C@H](C2)N3C(=O)OCc2ccccc2)c1`, the IC50 was over 99.5 µM.

On to `CN(C)Cc1ccc(NC(=O)c2cc(Cl)cc(NC(=O)OCc3ccccc3)c2)cc1`, for which the IC50 was found to be 70.3 µM.

Consider `O=c1oc2cccnc2n1CC=Cc1ccccc1`, for which the IC50 was over 99.5 µM.

Regarding `NCc1cccc(NC(=O)[C@@H]2CCC[C@H](OC(F)(F)F)C2)c1`, the IC50 was over 99.5 µM.

`Cc1cc(C(=O)Nc2cccc(CN)c2)cc(NCC(F)(F)F)n1` had an IC50 of over 99.5 µM.

The molecule `Cc1cc(C(=O)Nc2cccc(CN)c2)c2nc(C)n(C)c2n1` yielded an IC50 of over 99.5 µM.

For `Cc1cc(C)c([C@@H](CC(=O)Nc2cccc(CN)c2)NC(=O)OCc2ccccc2)cc1C`, the IC50 was 5.67 µM and 6.27 µM.

`Cn1cc(-c2cccc([C@@H](NC(=O)OCc3ccccc3)C(=O)Nc3cccc(CN)c3)c2)ccc1=O` returned an IC50 of 73.9 µM. This counts as double-digit micromolar.

In the case of `CC(F)(F)c1cccc(NC(=O)c2cc(Cl)cc(NC(=O)OCc3ccccc3)c2)c1`, the IC50 was over 99.5 µM.

As to `O=C(Nc1cc(Cl)cc(C(=O)Nc2cccc(-c3nnn[nH]3)c2)c1)OCc1ccccc1`, the IC50 is 40.8 µM. This lies in the double-digit micromolar range.

Molecule `Nc1nc(S(=O)(=O)c2ccccc2)c(Cl)s1` came in with an IC50 of over 99.5 µM.

Turning to `C[C@@H]1C[C@@H](C(=O)Nc2cccc(CN)c2)CCO1`, the IC50 is over 99.5 µM.

`CN(C)[C@@H]1CCC[C@H](C(=O)Nc2cccc(CN)c2)C1` registered an IC50 of over 99.5 µM.

`C[C@@H]1CCC[C@H](C(=O)Nc2cccc(CN)c2)O1` had an IC50 of over 99.5 µM.

As for `NCc1cccc(NC(=O)c2cc(Br)cc3[nH]ccc23)c1`, the midpoint of inhibition, the IC50, lay at 4.73 µM.

The molecule `Cc1cc(C(F)(F)F)nc(C(=O)Nc2cccc(CN)c2)n1` showed an IC50 of over 99.5 µM.

In the case of `CN(C)CCC(=O)N1CCC([C@@H](NC(=O)OCc2ccccc2)C(=O)Nc2cccc(CN)c2)CC1`, the IC50 is over 99.5 µM.

As to `NCc1cccc(NC(=O)[C@H]2COCC3(CCC3)O2)c1`, the IC50 was over 99.5 µM.

With `Brc1cnc(Sc2ncc[nH]2)nc1`, the IC50 was over 99.5 µM.

In turn, `C[C@H]1CN(C)C[C@H](C(=O)Nc2cccc(CN)c2)O1` had an IC50 of over 99.5 µM.

Take `NCc1cccc(NC(=O)c2cc(Cl)cc3[nH]ncc23)c1`: the IC50 stood at 0.886 µM.

In turn, `c1cc(-c2nnc(NCc3nnn[nH]3)s2)no1` came in with an IC50 of over 99.5 µM.

On to `CC[C@@H](Cc1nnn[nH]1)c1ccc(NC(=O)c2cc(Cl)cc(NC(=O)OCc3ccccc3)c2)cc1`, for which the IC50 turned out to be 18.7 µM.

In turn, `O=C(Nc1cc(Cl)cc(C(=O)Nc2cccc(Cc3nn[nH]n3)c2)c1)OCc1ccccc1` gave a 50% inhibitory concentration (IC50) of 64.9 µM.

`COc1ccc(-n2nnnc2SC(F)F)cc1`: the IC50 was over 99.5 µM.

`NCc1cccc(NC(=O)[C@@H](NC(=O)OCc2ccccc2)c2cccc(-c3cncnc3)c2)c1` had an IC50 of over 99.5 µM.

`CC(=O)NCc1cccc(NC(=O)c2cc(Cl)cc(NC(=O)OCc3ccccc3)c2)c1` yielded an IC50 of over 99.5 µM.

On to `Cc1nnsc1Cn1ccc(Br)n1`, for which the IC50 was over 99.5 µM.

Consider `C=C(C)c1cccc([C@@H](NC(=O)OCc2ccccc2)C(=O)Nc2cccc(CN)c2)c1`, for which the IC50 was 9.65 µM.

On to `NCc1cccc(NC(=O)c2cccc3c2CCC3)c1`, for which the IC50 came out at 19.5 µM.

For the molecule `CNCc1cc(Cl)cc(C(=O)Nc2cccc(CN)c2)c1`, the IC50 was 1.42 µM.

As for `NCCc1cccc(-c2cccc([C@@H](NC(=O)OCc3ccccc3)C(=O)Nc3cccc(CN)c3)c2)c1`, it took 10.5 µM to reach half-maximal inhibition (IC50). This IC50 lies about 7.4-fold higher than the previous one.

Molecule `NCc1cccc(NC(=O)[C@@H](NC(=O)OCc2ccccc2)c2cccc(-c3ccc(N)nc3)c2)c1` came in with an IC50 of 43.6 µM.

For the molecule `CC(C)(C)OC(=O)NCc1cc(Br)cc(NC(=O)c2cc(Cl)cc(NC(=O)OCc3ccccc3)c2)c1`, the IC50 was over 99.5 µM.

`O=S1(=O)CCN(CC#Cc2ccc3sncc3c2)CC1` showed an IC50 of over 99.5 µM.

`CCc1cccc(NC(=O)[C@]2(Oc3ccc(Br)cc3)CCNC3(CC3)C2)c1` returned an IC50 of over 99.5 µM.

Regarding `N#Cc1csc(CSc2nnc(C(F)(F)F)s2)n1`, the IC50 is over 99.5 µM.

`c1cc(Cc2noc(CCc3cscn3)n2)no1` registered an IC50 of over 99.5 µM.

`NCc1cc(NS(=O)(=O)c2ccc(Oc3ccccc3Cl)cc2)ccc1Cl` came in with an IC50 of over 99.5 µM.

`CCn1ncc(-c2noc3nc(C)cc(C(=O)Nc4cccc(CN)c4)c23)c1C` came in with an IC50 of over 99.5 µM.

On to `NCc1cccc(NC(=O)[C@H]2CCc3nnc(C4CC4)n3C2)c1`, for which the IC50 was over 99.5 µM.

Take `COc1ccc2c(c1)c(C(=O)Nc1cccc(CN)c1)c(C)n2C1CCCC1`: the IC50 is over 99.5 µM.

Consider `Cc1cc(Cl)cc(C(=O)Nc2cccc(CN)c2)n1`, for which the IC50 is over 99.5 µM.

Regarding `CN1CC=C(c2cccc([C@@H](NC(=O)OCc3ccccc3)C(=O)Nc3cccc(CN)c3)c2)CC1`, half-maximal inhibition (IC50) required 67.5 µM.

`NCc1cccc(NC(=O)c2cc(Cl)cc(CN3CCOCC3)c2)c1` gave an IC50 of 52.9 µM.

`O=S(=O)(Cc1nnc(Cc2ccccc2)o1)c1ccc(O)cc1` had an IC50 of over 99.5 µM.

Molecule `CCOc1cccc(-c2ccc(S(=O)(=O)Nc3cc(F)c(Cl)cc3C(=O)O)cc2)c1` returned an IC50 of 8.18 µM.

`FC(F)(F)c1nnc(COc2cncnc2)s1` gave an IC50 of over 99.5 µM.

Regarding `NCc1cc(Cl)cc(C(=O)Nc2ccc3c(c2)CNC3)c1`, the IC50 was 0.114 µM.

Consider `C[C@@H](N)c1cc(Cl)cc(C(=O)Nc2cccc(CN)c2)c1`, for which half-maximal inhibition (IC50) was put at 3.42 µM.

`CSCc1nnc(SCc2ccncc2)o1`: the IC50 was over 99.5 µM.

For `O=C(Nc1cc(Cl)cc(C(=O)Nc2cccc(-n3nn[nH]c3=O)c2)c1)OCc1ccccc1`, it took 30.8 µM to reach half-maximal inhibition (IC50).
